In one data set the test system is HIV-IIIb. The experiment in a line: Test A: Antiviral Assay in MT4 Cells. It counts as cell-based, HIV-1. The conditions noted are these: Human immunodeficiency virus 1, IIIB, MT4, 120 h; for inhibition at 0.2 µM: read-out: % inhibition at 0.2 μM; for inhibition at 2 µM: read-out: % inhibition at 2 μM. Here is the method: Test A: Antiviral Assay in MT4 Cells
MT-4 cells were next mixed with HIV-IIIb at an m.o.i of 0.003 for 1 hour, after which time 35 μL of virus/cell mixture (2000 cells) was immediately added to each well containing 40 μL of diluted compound. The plates were then incubated at 37° C. for 5 days. […] Cell lysis was carried out by incubating at room temperature for 10 min and then chemiluminescence was read.

Data set [1] can be described thus: Test B: Cytotoxicity Assay. It counts as cell-based. To be noted: human, uninfected MT-4 cells, same protocol as Test A. The gist of the method:
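Uninfected MT-4 cells (2000 per well) incubated with diluted compound at 37° C. for 5 days, following the antiviral protocol without HIV-IIIb.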

Take `Cn1nc(NS(C)(=O)=O)c2c(Cl)ccc(-c3ccc(C#CC(C)(C)O)nc3[C@H](Cc3cc(F)cc(F)c3)NC(=O)Cc3noc4ccccc34)c21` [Compound 198, (S)-2-(benzo[d]isoxazol-3-yl)-N-(1-(3-(4 chloro-1-methyl-3-(methylsulfonamido)-1H-indazol-7-yl)-6-(3-hydroxy-3-methylbut-1-yn-1-yl)pyridin-2-yl)-2-(3,5-difluorophenyl)ethyl)acetamide]: in the data set on HIV-IIIb, the inhibition at 0.2 µM was determined as 64% and the inhibition at 2 µM was 98%. This compound showed a CC50 at 5 days in data set [1] of 23.7 µM.

As for `Cn1nc(NS(C)(=O)=O)c2c(Cl)ccc(-c3ccc(C#CC(C)(O)CF)nc3[C@H](Cc3cc(F)cc(F)c3)NC(=O)Cn3nc(C(F)F)c4c3C(F)(F)[C@@H]3C[C@H]43)c21` (stereo partly drawn) [Compound 144, N-((1S)-1-(3-(4-chloro-1-methyl-3-(methylsulfonamido)-1H-indazol-7-yl)-6-(4-fluoro-3-hydroxy-3-methylbut-1-yn-1-yl)pyridin-2-yl)-2-(3,5-difluorophenyl)ethyl)-2-((3b-S,4aR)-3-(difluoromethyl)-5,5-difluoro-3b,4,4a,5-tetrahydro-1H-cyclopropa[3,4]cyclopenta[1,2-c]pyrazol-1-yl)acetamide], in the data set on HIV-IIIb, the inhibition at 0.2 µM is 95% and the inhibition at 2 µM is 95%. Moreover, in data set [1], the CC50 at 5 days was found to be 16.2 µM.

Turning to `Cn1nc(NS(C)(=O)=O)c2cccc(-c3ccc(C#CC(C)(C)O)nc3[C@H](Cc3cc(F)cc(F)c3)NC(=O)Cn3nc(C(F)(F)F)c4c3C3CC3CO4)c21` (stereo partly drawn) [Compound 67I, N—((S)-2-(3,5-difluorophenyl)-1-(6-(3-hydroxy-3-methylbut-1-yn-1-yl)-3-(1-methyl-3-(methylsulfonamido)-1H-indazol-7-yl)pyridin-2-yl)ethyl)-2-(3-(trifluoromethyl)-5,5a,6,6a-tetrahydro-1H-cyclopropa[4,5]pyrano[3,2-c]pyrazol-1-yl)acetamide], in the data set on HIV-IIIb, the inhibition at 0.2 µM was 94% and the inhibition at 2 µM came out at 94%. In data set [1], the CC50 at 5 days came out at 21.5 µM.

As to `Cn1nc(NC(=O)CO)c2c(Cl)ccc(-c3ccc(C#CC(C)(C)O)nc3[C@H](Cc3cc(F)cc(F)c3)NC(=O)Cn3nc(C(F)F)c4c3C(F)(F)[C@@H]3C[C@H]43)c21` [Compound 88, N—((S)-1-(3-(4-chloro-3-(2-hydroxyacetamido)-1-methyl-1H-indazol-7-yl)-6-(3-hydroxy-3-methylbut-1-yn-1-yl)pyridin-2-yl)-2-(3,5-difluorophenyl)ethyl)-2-((3b-S,4aR)-3-(difluoromethyl)-5,5-difluoro-3b,4,4a,5-tetrahydro-1H-cyclopropa[3,4]cyclopenta[1,2-c]pyrazol-1-yl)acetamide], in the data set on HIV-IIIb, the inhibition at 0.2 µM turned out to be 100% and the inhibition at 2 µM is 100%. This compound registered a 50% cytotoxic concentration (CC50) at 5 days in data set [1] of 8.49 µM.

Regarding `Cn1nccc1-c1ccc(-c2ccc(Cl)c3c(NS(C)(=O)=O)nn(C)c23)c([C@H](Cc2cc(F)cc(F)c2)NC(=O)Cn2nc(C(F)(F)F)c3c2C(F)(F)[C@@H]2C[C@H]32)n1` [Compound 175, N—((S)-1-(3-(4-chloro-1-methyl-3-(methylsulfonamido)-1H-indazol-7-yl)-6-(1-methyl-1H-pyrazol-5-yl)pyridin-2-yl)-2-(3,5-difluorophenyl)ethyl)-2-((3b-S,4aR)-5,5-difluoro-3-(trifluoromethyl)-3b,4,4a,5-tetrahydro-1H-cyclopropa[3,4]cyclopenta[1,2-c]pyrazol-1-yl)acetamide], in the data set with HIV-IIIb, the inhibition at 0.2 µM was found to be 95% and the inhibition at 2 µM was determined as 95%. This compound also showed a CC50 at 5 days in data set [1] of more than 46.1 µM.

Regarding `CCNc1nn(C)c2c(-c3ccc(C#CC(C)(C)O)nc3[C@H](Cc3cc(F)cc(F)c3)NC(=O)Cn3nc(C(F)F)c4c3C(F)(F)[C@@H]3C[C@H]43)ccc(Cl)c12` [Compound 91E, N—((S)-1-(3-(4-chloro-3-(ethylamino)-1-methyl-1H-indazol-7-yl)-6-(3-hydroxy-3-methylbut-1-yn-1-yl)pyridin-2-yl)-2-(3,5-difluorophenyl)ethyl)-2-((3b-S,4aR)-3-(difluoromethyl)-5,5-difluoro-3b,4,4a,5-tetrahydro-1H-cyclopropa[3,4]cyclopenta[1,2-c]pyrazol-1-yl)acetamide], in the data set on HIV-IIIb, the inhibition at 0.2 µM turned out to be 100% and the inhibition at 2 µM turned out to be 100%. In data set [1], this compound gave a 50% cytotoxic concentration (CC50) at 5 days of 9.38 µM.

As for `Cn1nc(NS(C)(=O)=O)c2c(Cl)ccc(-c3ccc(-c4cnn(C(C)(C)C)c4)nc3[C@H](Cc3cc(F)cc(F)c3)NC(=O)Cn3nc(C(F)F)c4c3C(F)(F)[C@@H]3C[C@H]43)c21` [Compound 168B, N—((S)-1-(6-(1-(tert-butyl)-1H-pyrazol-4-yl)-3-(4-chloro-1-methyl-3-(methylsulfonamido)-1H-indazol-7-yl)pyridin-2-yl)-2-(3,5-difluorophenyl)ethyl)-2-((3b-S,4aR)-3-(difluoromethyl)-5,5-difluoro-3b,4,4a,5-tetrahydro-1H-cyclopropa[3,4]cyclopenta[1,2-c]pyrazol-1-yl)acetamide], in the data set on HIV-IIIb, the inhibition at 0.2 µM stood at 90% and the inhibition at 2 µM stood at 90%. Also, the CC50 at 5 days in data set [1] is more than 53.2 µM.

`Cc1ccc(C)c2c1NC(=O)C2CC(=O)N[C@@H](Cc1cc(F)cc(F)c1)c1nc(C#CC(C)(C)O)ccc1-c1ccc(Cl)c2c(NS(C)(=O)=O)nn(C)c12` (stereo partly drawn) [Compound 196, N—((S)-1-(3-(4-chloro-1-methyl-3-(methylsulfonamido)-1H-indazol-7-yl)-6-(3-hydroxy-3-methylbut-1-yn-1-yl)pyridin-2-yl)-2-(3,5-difluorophenyl)ethyl)-2-(4,7-dimethyl-2-oxoindolin-3-yl)acetamide]: in the data set with HIV-IIIb, the inhibition at 0.2 µM was 76% and the inhibition at 2 µM was determined as 92%. The same compound showed a cytotoxic concentration (CC50) at 5 days in data set [1] of 10.8 µM.

Consider `Cn1nc(NS(C)(=O)=O)c2c(Cl)ccc(-c3ccc(C#CC(C)(C)O)nc3[C@H](Cc3cc(F)cc(F)c3)NC(=O)Cn3nc(C#N)c4c3C(F)(F)[C@@H]3C[C@H]43)c21` [Compound 159, N—((S)-1-(3-(4-chloro-1-methyl-3-(methylsulfonamido)-1H-indazol-7-yl)-6-(3-hydroxy-3-methylbut-1-yn-1-yl)pyridin-2-yl)-2-(3,5-difluorophenyl)ethyl)-2-((3bS,4aR)-3-cyano-5,5-difluoro-3b,4,4a,5-tetrahydro-1H-cyclopropa[3,4]cyclopenta[1,2-c]pyrazol-1-yl)acetamide], for which, in the data set with HIV-IIIb, the inhibition at 0.2 µM stood at 95% and the inhibition at 2 µM amounted to 95%. The compound further came in with a half-maximal cytotoxic concentration (CC50) at 5 days in data set [1] of 27.4 µM.

With `Cn1nc(NS(C)(=O)=O)c2c(F)ccc(-c3ccc(C#CC(C)(C)O)nc3[C@H](Cc3cc(F)cc(F)c3)NC(=O)Cn3nc(C(F)(F)F)c4c3C(F)(F)[C@@H]3C[C@H]43)c21` [Compound 132C, 2-((3bS,4aR)-5,5-difluoro-3-(trifluoromethyl)-3b,4,4a,5-tetrahydro-1H-cyclopropa[3,4]cyclopenta[1,2-c]pyrazol-1-yl)-N—((S)-2-(3,5-difluorophenyl)-1-(3-(4-fluoro-1-methyl-3-(methylsulfonamido)-1H-indazol-7-yl)-6-(3-hydroxy-3-methylbut-1-yn-1-yl)pyridin-2-yl)ethyl)acetamide], in the data set with HIV-IIIb, the inhibition at 0.2 µM was found to be 92% and the inhibition at 2 µM is 92%. In data set [1], the midpoint of cytotoxicity, the CC50 at 5 days, lay at 24.2 µM.

For `CC(C(=O)N[C@@H](Cc1cc(F)cc(F)c1)c1nc(C#CC(C)(C)O)ccc1-c1ccc(Cl)c2c(NS(C)(=O)=O)nn(C)c12)c1ccccc1` (stereo partly drawn) [Compound 195, N—((S)-1-(3-(4-chloro-1-methyl-3-(methylsulfonamido)-1H-indazol-7-yl)-6-(3-hydroxy-3-methylbut-1-yn-1-yl)pyridin-2-yl)-2-(3,5-difluorophenyl)ethyl)-2-phenylpropanamide], in the data set with HIV-IIIb, the inhibition at 0.2 µM was 88% and the inhibition at 2 µM is 90%. Besides, the CC50 at 5 days in data set [1] was determined as 11.2 µM.

With `Cn1nc(NS(C)(=O)=O)c2c(Cl)ccc(-c3cc(C(N)=O)cnc3[C@H](Cc3cc(F)cc(F)c3)NC(=O)Cn3nc(C(F)F)c4c3C(F)(F)[C@@H]3C[C@H]43)c21` [Compound 186D, 5-(4-chloro-1-methyl-3-(methylsulfonamido)-1H-indazol-7-yl)-6-((S)-1-(2-((3bS,4aR)-3-(difluoromethyl)-5,5-difluoro-3b,4,4a,5-tetrahydro-1H-cyclopropa[3,4]cyclopenta[1,2-c]pyrazol-1-yl)acetamido)-2-(3,5-difluorophenyl)ethyl)nicotinamide], in the data set with HIV-IIIb, the inhibition at 0.2 µM is 87% and the inhibition at 2 µM worked out at 87%. In data set [1], this compound came in with a half-maximal cytotoxic concentration (CC50) at 5 days of 1.52 µM.

Consider `Cn1nc(N)c2cccc(-c3ccc(C#CC(C)(C)O)nc3[C@H](Cc3cc(F)cc(F)c3)NC(=O)Cn3nc(C(F)F)c4c3C(F)(F)CCC4(F)F)c21` [Compound 31, (S)—N-(1-(3-(3-amino-1-methyl-1H-indazol-7-yl)-6-(3-hydroxy-3-methylbut-1-yn-1-yl)pyridin-2-yl)-2-(3,5-difluorophenyl)ethyl)-2-(3-(difluoromethyl)-4,4,7,7-tetrafluoro-4,5,6,7-tetrahydro-1H-indazol-1-yl)acetamide], for which, in the data set with HIV-IIIb, the inhibition at 0.2 µM came out at 89% and the inhibition at 2 µM was found to be 89%. For the same compound, in data set [1], it took 8.03 µM to reach half-maximal cytotoxicity (CC50 at 5 days).

Regarding `CC(C)(O)C#Cc1ccc(-c2ccc(Cl)c3c(NS(C)(=O)=O)n[nH]c23)c([C@H](Cc2cc(F)cc(F)c2)NC(=O)Cn2nc(C(F)(F)F)c3c2C(F)(F)[C@@H]2C[C@H]32)n1` [Compound 109, N—((S)-1-(3-(4-chloro-3-(methylsulfonamido)-1H-indazol-7-yl)-6-(3-hydroxy-3-methylbut-1-yn-1-yl)pyridin-2-yl)-2-(3,5-difluorophenyl)ethyl)-2-((3b-S,4aR)-5,5-difluoro-3-(trifluoromethyl)-3b,4,4a,5-tetrahydro-1H-cyclopropa[3,4]cyclopenta[1,2-c]pyrazol-1-yl)acetamide], in the data set on HIV-IIIb, the inhibition at 0.2 µM came out at 97% and the inhibition at 2 µM was 97%. The compound also gave a CC50 at 5 days in data set [1] of 29.6 µM.

By inhibition is commonly meant the share of the control response that was lost under treatment. A word on the CC50: it is the concentration at which the toxic effect on the cells reaches its halfway point. Low readings indicate greater toxicity to the cells, high ones lower toxicity to the cells.

For the origin of these results see patent publication US20140303164A1, “THERAPEUTIC COMPOUNDS” (Gilead Sciences, Inc., priority 2013, published 2014).
